Measured values: paper PMC5773487, “Harnessing insulin- and leptin-induced oxidation of PTP1B for therapeutic development” (Nature Communications, 2018)
Where a chain is given by its changes, count along the chain named. “And” between values parts separate entries of the source, which are not always exact repeats. Equal values may be shown once. “Also recorded” adds a separate entry of the source. Read-outs that look alike come from different tables or passages of the source. Each block holds one molecule with its values, some of them ahead of it.

Columns and labels:
Assay type in all cases: binding
[1] = biological target: T1, PTP1B-CASA (Homo sapiens, UniProt P18031, C215A/S216A); assay: isothermal titration calorimetry; settings: 25°C
T1 construct: PTP1B (1–321) and TCPTP (1–317) cloned in pET21b vector were used as templates; 6xHis (C); made in house; host or cells: E. coli BL21 (DE3)-RIL
T1 sequence (P18031 1-321 C215A/S216A limits assumed): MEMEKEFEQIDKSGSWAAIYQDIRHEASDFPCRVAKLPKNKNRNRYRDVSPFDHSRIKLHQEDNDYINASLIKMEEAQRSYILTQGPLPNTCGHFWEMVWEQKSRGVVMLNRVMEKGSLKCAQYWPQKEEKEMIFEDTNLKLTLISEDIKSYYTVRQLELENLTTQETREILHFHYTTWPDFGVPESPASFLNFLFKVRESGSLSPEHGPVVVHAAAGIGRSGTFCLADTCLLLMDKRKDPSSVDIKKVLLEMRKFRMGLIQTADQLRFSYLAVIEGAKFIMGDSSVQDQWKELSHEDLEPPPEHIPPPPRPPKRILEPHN
Experimental: (§1) The studies were performed using a VP-ITC system from GE Healthcare. All titrations were performed at 25°C in de-gassed buffer (50 mM HEPES pH 7.0, 100 mM NaCl, 2 % DMSO, and 1 mM TCEP). The protein concentrations of PTP1B-CASA and PTP1B-CASA-mut2 were each 50 μM. Protein samples used in ITC were dialyzed completely against the buffer. Inhibitor (10 mM) in DMSO was diluted to make a stock solution of 0.2 mM in de-gassed buffer, which was then used as titrant in the syringe. The instrument was calibrated by using the heat of dilution of NaCl in water. […] The heat of ligand dilution was corrected by subtracting the average heat of injection after saturation. Origin software was used to fit and analyze the data.

[2] = biological target: T2, PTP1B-CASA-mut2 (Homo sapiens, UniProt P18031, C215A/K39E/K41R/L37F/S216A); assay: isothermal titration calorimetry; settings: two independent experiments
T2 construct: PTP1B (1–321) and TCPTP (1–317) cloned in pET21b vector were used as templates; made in house; host or cells: E. coli BL21 (DE3)-RIL
T2 sequence (P18031 1-321 L37F/K39E/K41R/C215A/S216A limits assumed): T1 sequence (P18031 1-321 C215A/S216A limits assumed) with L37F, K39E, K41R
Experimental: as §1

[3] = biological target: T2, PTP1B-CASA-mut2; assay: analytical size-exclusion chromatography; settings: excess or limiting molar ratios
Experimental: Recombinant PTP1B-CASA, PTP1B-CASA-mut2, and scFv45 were purified as described. Proteins were exchanged into freshly prepared 50 mM ammonium bicarbonate pH 8 (Fig. 2a; Supplementary Fig. 1) using 0.5 mL Zeba spin desalting columns 7K MWCO (Thermo Fisher Scientific) as per manufacturers protocol. Designated protein constructs or buffer equivalents were mixed at 1.1 or 1.4 molar excess (excess reciprocated for both PTP1B and scFv45) and incubated on ice 20 min prior to injection (20 µL injection loop; 4–10 µg total protein), separation, and detection on a Dionex Ultimate 3000 HPLC connected to an XBridge Protein BEH SEC 200 Å, 3.5 µm, 7.8 mm × 300 mm column (Waters) flowing 200 mM ammonium acetate pH 7.0 isocratically at 0.86 mL min^−1 and 25 °C, monitoring absorbance at λ 280 nm (Fig. 2a; Supplementary Fig. 1). Injections were performed intermittently with BEH200Å SEC Protein Standard Mix (amount corrected for 20 µL injection loop; Waters Corp.) to monitor peak resolution and retention time consistency among runs.

Molecule: COc1ccc2c(c[n+](C)c3c4cc5c(cc4ccc23)OCO5)c1OC [chelerythrine]
Kd ([1]; read-out: binding constant for PTP1B-CASA by ITC): 3 µM
Kd ([1]; independent experiments, read-out: affinity for PTP1B-CASA by ITC): 3.25 µM and 2.83 µM and 3.44 µM
binding to PTP1B-CASA-mut2 by ITC [2]: No apparent binding; also recorded: did not detect saturable binding

association with PTP1B-CASA-mut2 [3]: unable to associate
B1: scFv45: recombinant conformation-sensor single-chain variable fragment antibody recognizing oxidized PTP1B (antibody, V domains shown)
VH: TVTLDESGGGLQAPGGALSLVCKASGFTFSSYDMGWIRQAPGKGLEYVAGITDNGRYASYGSAVDGRATISRDNGQSSVRLQLNNLRAEDTGTYYCARDDGSGWTGNSIDAWGHGTEVIVSE
VL: ALTQPSSVSANPGGTVKITCSGSSSAYGYGWYQQKSPGSAPVTVIYNNNKRPSNIPSRFSGSKSGSTGTLTITGVQAEDEAVYFCGSEDSSTDAIFGAGTTLTVL
